Assay results from US20200115698A1, “PHARMACEUTICAL COMBINATION FOR TREATMENT OF FABRY DISEASE AND USE THEREOF” (MEIJI PHARMACEUTICAL UNIVERSITY, priority 2017, published 2020).

Assays:
α-NAGA mutant = target: T1, α-NAGA mutant (Homo sapiens, UniProt P17050, A191L/S188E); assay: Calculation of inhibition constant Ki (Lineweaver-Burk plot); format: biochemical; conditions: substrate 1-8 mM; DGJ 100-400 nM, GBS 200-800 nM; pH 4.6; FIG. 2
T1 sequence (P17050 with tags, fused parts or gaps S188E/A191L): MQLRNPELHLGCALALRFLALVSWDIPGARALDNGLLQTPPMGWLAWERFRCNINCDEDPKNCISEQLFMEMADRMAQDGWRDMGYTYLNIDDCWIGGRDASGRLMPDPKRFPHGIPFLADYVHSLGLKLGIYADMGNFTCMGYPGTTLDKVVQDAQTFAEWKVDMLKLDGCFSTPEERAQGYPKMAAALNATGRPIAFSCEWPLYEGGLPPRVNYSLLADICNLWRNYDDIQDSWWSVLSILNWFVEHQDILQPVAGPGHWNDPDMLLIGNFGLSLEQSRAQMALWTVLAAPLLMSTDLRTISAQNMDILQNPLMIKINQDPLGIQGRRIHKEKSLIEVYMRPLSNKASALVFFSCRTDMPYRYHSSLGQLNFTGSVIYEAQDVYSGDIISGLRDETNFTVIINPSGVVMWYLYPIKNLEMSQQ
Description: Enzymatic analysis was carried out by using, as a reaction liquid, 50 ng of an α-NAGA mutant and 0.1 M phosphate-citrate buffer (pH 4.6) in which a 4-methylumbelliferylα-D-galactopyranoside substrate was dissolved at any of concentrations (1, 2, 4, 6, and 8 mM) (the total amount was 50 μl). In measuring inhibitory activity, reaction was carried out with a reaction liquid which contained DGJ at a concentration of 100, 200, or 400 nM or GBS at a concentration of 200, 400, or 800 nM. After the reaction was carried out at 37° C. for 10 minutes, 950 μl of 0.2 M glycine buffer (pH 10.7) was added to stop the reaction. Then, released 4-methylumbelliferone was measured at an excitation wavelength of 355 nm and at a fluorescence wavelength of 460 nm with use of Wallac 1420 ARVO MX Multilabel Counter. From these values, a Lineweaver-Burk plot was prepared and an inhibition constant Ki was calculated from slopes in the plot which correspond to respective concentrations of the inhibitor.

[1] = target: T2, α-NAGA mutant (SEQ ID NO:8) (Homo sapiens, UniProt P17050, A191L/S188E); assay: Screening of inhibitor (1): remaining enzyme activity of α-NAGA mutant with 4-methylumbelliferyl α-D-galactopyranoside; format: biochemical; conditions: 400 μM compound, pH 4.6, 37° C., 30 minutes
T2 sequence (P17050 with tags, fused parts or gaps S188E/A191L): T1 sequence (P17050 with tags, fused parts or gaps S188E/A191L)
Description: The screening of inhibitor was carried out as follows: An inhibitor candidate compound dissolved in purified water or DMSO was added to 20 ng of an α-NAGA mutant (SEQ ID NO:8) and 4 mM 4-methylumbelliferylα-D-galactopyranoside dissolved in 0.1 M phosphate-citrate buffer (pH 4.6) such that a concentration of the inhibitor candidate compound became 0.8, 1, or 400 μM, and the mixture thus obtained was caused to react at 37° C. for 30 minutes (the total amount was 50 μl). After the reaction, 950 μl of 0.2 M glycine buffer (pH 10.7) was added to stop the reaction. Then, released 4-methylumbelliferone was measured at an excitation wavelength of 355 nm and at a fluorescence wavelength of 460 nm with use of Wallac 1420 ARVO MX Multilabel Counter. Remaining enzyme activity was calculated based on the assumption that an enzyme activity value obtained in a case where purified water or DMSO is added instead of the inhibitor candidate compound is 100%.

OCC1NCC(O)C(O)C1O [DGJ, (2R,3S,4R,5S)-2-(hydroxymethyl)piperdine-3,4,5-triol]
inhibition pattern from inhibition constant Ki (α-NAGA mutant): inhibitory activity by competitive inhibition
inhibition effect on α-NAGA mutant (remaining enzyme activity) [1]: the inhibition effect was seen
